Source: patent US7776862B2, “Pyridyl and phenyl substituted piperazine-piperidines with CXCR3 antagonist activity” (Schering Corporation, priority 2005, dated 2010)

Each compound was assayed against T1, human CXCR3 (N-delta 4) (Homo sapiens, UniProt P49682) (assay: Human CXCR3 (N-delta 4) scintillation proximity assay (SPA), [125I] IP-10 binding). Settings: IC50 rating; Ba/F3-hCXCR3 (N-delta 4) membranes, 25 pM [125I] IP-10.
T1 construct: CD8 leader; Flag tag; expressed in transfected cells; membranes used
T1 sequence (P49682 5-368 limits assumed): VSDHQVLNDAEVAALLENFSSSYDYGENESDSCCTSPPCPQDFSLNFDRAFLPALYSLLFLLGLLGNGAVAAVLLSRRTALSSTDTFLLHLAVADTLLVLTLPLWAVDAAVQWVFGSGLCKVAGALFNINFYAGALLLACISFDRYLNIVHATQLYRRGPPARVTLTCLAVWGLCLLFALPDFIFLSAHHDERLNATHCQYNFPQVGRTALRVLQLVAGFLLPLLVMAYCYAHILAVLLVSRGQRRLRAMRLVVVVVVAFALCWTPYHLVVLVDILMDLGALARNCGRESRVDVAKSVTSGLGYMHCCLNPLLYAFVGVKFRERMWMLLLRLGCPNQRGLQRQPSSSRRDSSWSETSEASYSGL
Summary of the method: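 Membranes from mouse Ba/F3 pro-B cells stably expressing Flag-tagged human CXCR3 (N-delta 4) were coupled to SPA beads. IP-10 was added together with titrated compounds to start the reaction, and bound radioligand was read by scintillation proximity.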

Compound	IC50
O=C(NCc1ccc(C(F)(F)F)cc1)c1cnc(N2CCN(C3CCN(Cc4ccc(Cl)c(F)c4)CC3)CC2)c(Cl)c1 [compound 73]	> 0.1 µM
C[C@H]1CN(c2ncc(C(=O)NCc3ccc(F)c(F)c3)cc2Cl)CCN1C1CCN(CCOc2ccc(Cl)cc2)CC1 [compound 311]	0.025 to 0.1 µM
CNC(=O)c1cnc(N2CCN(C3CCN(/C(=N\C#N)c4ccc(Cl)cc4)CC3)[C@@H](C)C2)c(Cl)c1 [compound 359]	> 0.1 µM
CCNC(=O)c1cnc(N2CCN(C3CCN(Cc4ccc(Cl)cc4)CC3)[C@@H](CC)C2)c(Cl)c1 [compound 213]	< 0.025 µM
CC[C@H]1CN(c2ncc(CNC(=S)NC3CC3)cc2Cl)CCN1C1CCN(Cc2ccc(Cl)cc2F)CC1 [compound 374]	< 0.025 µM
CC[C@H]1CN(c2ncc(CNC)cc2Cl)CCN1C1CCN(Cc2ccc(Cl)cc2F)CC1 [compound 393]	< 0.025 µM
C[C@@H]1CN(c2ncc(C(=O)NCC3CCCCC3)cc2Cl)CCN1C1CCN(Cc2ccc(Cl)cc2)CC1 [compound 242]	< 0.025 µM
CCOC(=N)c1cnc(N2CCN(C3CCN(Cc4ccc(Cl)cc4F)CC3)[C@@H](CC)C2)c(Cl)c1 [compound 415]	0.025 to 0.1 µM
O=C(NCc1ccc(F)c(F)c1)c1cnc(N2CC3CC2CN3C2CCN(Cc3ccc(Cl)cc3)CC2)c(Cl)c1 (stereo not shown) [compound 170]	> 0.1 µM
CC[C@H]1CN(c2ncc(C(=O)c3ncco3)cc2Cl)CCN1C1CCN(Cc2ccc(Cl)cc2F)CC1 [compound 428]	0.025 to 0.1 µM
C[C@H]1CN(c2ncc(CN)cc2Cl)CCN1C1CCN(Cc2ccc(Cl)cc2)CC1 [compound 440]	> 0.1 µM
CC[C@H]1CN(c2ncc(C(C)OC(C)=O)cc2Cl)CCN1C1CCN(Cc2ccc(Cl)cc2F)CC1 (stereo partly shown) [compound 451]	> 0.1 µM
O=C(NCc1ccc(Cl)cc1Cl)c1cnc(N2CCN(C3CCN(Cc4ccc(Cl)c(F)c4)CC3)CC2)c(Cl)c1 [compound 133]	0.025 to 0.1 µM
N#Cc1ccc(CN2CCC(N3CCN(c4ncc(C(=O)NCc5cccc(Cl)c5)cc4Cl)CC3)CC2)cc1 [compound 47]	> 0.1 µM
O=C(NCc1ccc(Cl)c(Cl)c1)c1cnc(N2CCN(C3CCN(Cc4ccc(F)cc4)CC3)CC2)c(Cl)c1 [compound 135]	0.025 to 0.1 µM
N#Cc1ccc(C(=O)N2CCC(N3CCN(c4ncc(C(=O)NCC5CCCCC5)cc4Br)CC3)CC2)cc1 [compound 193]	0.025 to 0.1 µM
CNC(=O)c1cnc(N2CCN(C3CCN(Cc4ccc(Cl)cc4)CC3)[C@@H](CC(C)C)C2)c(Cl)c1 [compound 198]	> 0.1 µM
CCNC(=O)c1cnc(N2CCN(C3CCN(C(=O)c4ccc(Cl)cc4)CC3)[C@@H](C(C)C)C2)c(Cl)c1 [compound 211]	> 0.1 µM
CC[C@H]1CN(c2ncc(C(=O)NCCO)cc2Cl)CCN1C1CCN(C(C(=O)OC)c2ccc(Cl)cc2)CC1 (stereo partly shown) [compound 274]	0.025 to 0.1 µM
CC[C@H]1CN(c2ncc(CN(C(=O)N(C)C)C3CC3)cc2Cl)CCN1C1CCN(Cc2ccc(Cl)cc2F)CC1 [compound 432]	0.025 to 0.1 µM
CC(NC(=O)c1cnc(N2CCN(C3CCN(Cc4ccc(Cl)cc4)CC3)CC2)c(Cl)c1)c1ccccc1 (stereo not shown) [compound 104]	0.025 to 0.1 µM
CC[C@H]1CN(c2ncc(C(=O)O)cc2Cl)CCN1C1CCN(Cc2ccc(Cl)cc2F)CC1 [compound 436]	> 0.1 µM

Compound	IC50
O=C(NCc1ccc(Cl)cc1F)c1cnc(N2CCN(C3CCN(Cc4ccc(F)cc4)CC3)CC2)c(Cl)c1 [compound 134]	0.025 to 0.1 µM
CC[C@H]1CN(c2ncc(C(=O)NN)cc2Cl)CCN1C1CCN(Cc2ccc(Cl)cc2F)CC1 [compound 273]	0.025 to 0.1 µM
CC(C)NC(=O)c1cnc(N2CCN(C3CCN(Cc4ccc(Cl)cc4)CC3)CC2)c(Cl)c1 [compound 180]	> 0.1 µM
CC(C)C[C@H]1CN(c2ncc(C(=O)NC(C)C)cc2Cl)CCN1C1CCN(Cc2ccc(Cl)cc2)CC1 [compound 196]	> 0.1 µM
C[C@@H]1CN(c2ncc(C(=O)NCc3ccc(F)c(F)c3)cc2Cl)CCN1C1CCN(Cc2ccc(Cl)cc2)CC1 [compound 254]	< 0.025 µM
O=C(NCc1ccc(F)cc1)c1cnc(N2CCN(C3CCN(Cc4ccc(Cl)cc4Cl)CC3)CC2)c(Cl)c1 [compound 7]	> 0.1 µM
CC[C@H]1CN(c2ncc(C(=O)NC)cc2Cl)CCN1C1CCN(C2c3ccc(Cl)cc3CCc3cccnc32)CC1 (stereo partly shown) [compound 356]	> 0.1 µM
CNC(=O)c1cnc(N2CCN(C3CCN(Cc4ccc(Cl)cc4)C(C)C3)[C@@H](C)C2)c(Cl)c1 (stereo partly shown) [compound 159]	0.025 to 0.1 µM
O=C(NCCOc1ccccc1)c1cnc(N2CCN(C3CCN(Cc4ccc(Cl)c(F)c4)CC3)CC2)c(Cl)c1 [compound 123]	0.025 to 0.1 µM
CC[C@H]1CN(c2ncc(C(=O)NC)cc2Cl)CCN1C1CCN(C(=O)c2ccc(Cl)cc2)CC1 [compound 259]	< 0.025 µM
CC[C@H]1CN(c2ncc(CNC(=O)NC3CCCCC3)cc2Cl)CCN1C1CCN(Cc2ccc(Cl)cc2F)CC1 [compound 390]	< 0.025 µM
CCNC(=O)c1cnc(N2CCN(C3CCN(Cc4ccc(Cl)cc4)C(C)C3)[C@@H](CC)C2)c(Cl)c1 (stereo partly shown) [compound 220]	< 0.025 µM
N#Cc1ccc(CN2CCC(N3CCN(c4ncc(C(=O)NCc5ccc(C(F)(F)F)cc5)cc4Br)CC3)CC2)cc1 [compound 324]	0.025 to 0.1 µM
O=C(NCc1ccc(F)c(Cl)c1)c1cnc(N2CCN(C3CCN(Cc4ccc(Cl)c(F)c4)CC3)CC2)c(Cl)c1 [compound 156]	0.025 to 0.1 µM
CNC(=O)c1cnc(N2CCN(C3CCN(Cc4ccc(Cl)cc4)CC3)[C@@H](C)C2)c(Cl)c1 [compound 241]	< 0.025 µM
O=C(NCC1CC1)c1cnc(N2CCN(C3CCN(Cc4ccc(Cl)cc4)CC3)CC2)c(Cl)c1 [compound 167]	> 0.1 µM
CC[C@H]1CN(c2ncc(CNC(=O)NC3CC3)cc2Cl)CCN1C1CCN(Cc2ccc(Cl)cc2F)CC1 [compound 372]	< 0.025 µM
CNC(=O)c1cnc(N2CCN(C3CCN([C@@H]4CCc5cc(Cl)ccc54)CC3)[C@@H](C)C2)c(Cl)c1 [compound 271]	0.025 to 0.1 µM
CC[C@H]1CN(c2ncc(CNC(=O)Nc3c(C)noc3C)cc2Cl)CCN1C1CCN(Cc2ccc(Cl)cc2F)CC1 [compound 417]	0.025 to 0.1 µM
O=C(NCc1ccc(F)c(Cl)c1)c1cnc(N2CCN(C3CCN(Cc4ccc(F)c(F)c4)CC3)CC2)c(Cl)c1 [compound 154]	0.025 to 0.1 µM
CNC(=O)c1cnc(N2CCN(C3CCN(Cc4cccc(C)c4)CC3)[C@@H](C)C2)c(Cl)c1 [compound 334]	> 0.1 µM
CC[C@H]1CN(c2ncc(C(N)=O)cc2Cl)CCN1C1CCN(C(=O)c2ccc(Cl)cc2N2CCOC2=O)CC1 [compound 146]	0.025 to 0.1 µM

Compound	IC50
C[C@H]1CN(C2CCN(Cc3ccc(Cl)cc3)CC2)CCN1c1ncc(C(=O)NCc2ccc(Cl)c(Cl)c2)cc1Cl [compound 175]	0.025 to 0.1 µM
O=C(NCc1ccc(Cl)c(Cl)c1)c1cnc(N2CCN(C3CCN(Cc4ccc(Cl)c(F)c4)CC3)CC2)c(Cl)c1 [compound 115]	0.025 to 0.1 µM
CC[C@H]1CN(c2ncc(CNC(=N)N)cc2Cl)CCN1C1CCN(Cc2ccc(Cl)cc2F)CC1 [compound 394]	< 0.025 µM
CC[C@H]1CN(c2ncc(C(C)N)cc2Cl)CCN1C1CCN(Cc2ccc(Cl)cc2F)CC1 (stereo partly shown) [compound 450]	> 0.1 µM
CCOC(CNC(=O)c1cnc(N2CCN(C3CCN(Cc4ccc(Cl)cc4)CC3)[C@@H](C)C2)c(Cl)c1)OCC [compound 340]	> 0.1 µM
CC[C@H]1CN(c2ncc(C(=O)OC)cc2Cl)CCN1C1CCN(C(=O)c2ccc(-n3cccc3)cc2)CC1 [compound 457]	> 0.1 µM
C[C@@H]1CN(c2ncc(C(=O)NCC3CCCCC3)cc2Cl)CCN1C1CCN(Cc2ccc(C#N)cc2)CC1 [compound 300]	0.025 to 0.1 µM
CCC(=NO)c1cnc(N2CCN(C3CCN(Cc4ccc(Cl)cc4F)CC3)[C@@H](CC)C2)c(Cl)c1 [compound 444]	> 0.1 µM
CCNC(=N)c1cnc(N2CCN(C3CCN(Cc4ccc(Cl)cc4)CC3)[C@@H](C)C2)c(Cl)c1 [compound 430]	0.025 to 0.1 µM
C[C@@H](NC(=O)c1cnc(N2CCN(C3CCN(Cc4ccc(Cl)cc4)CC3)[C@@H](C)C2)c(Cl)c1)C1CCCCC1 [compound 247]	< 0.025 µM
N#Cc1ccc(C(=O)N2CCC(N3CCN(c4ncc(C(=O)NCc5ccc(C(F)(F)F)cc5)cc4Cl)CC3)CC2)cc1 [compound 2]	> 0.1 µM
CC[C@H]1CN(c2ncc(COC(=O)NC(C)C)cc2Cl)CCN1C1CCN(Cc2ccc(Cl)cc2F)CC1 [compound 405]	< 0.025 µM
O=C(NCc1ccccc1)c1cnc(N2CCN(C3CCN(Cc4ccc([N+](=O)[O-])cc4)CC3)CC2)c(Cl)c1 [compound 75]	> 0.1 µM
O=C(NCc1cc(Cl)cc(Cl)c1)c1cnc(N2CCN(C3CCN(Cc4ccc([N+](=O)[O-])cc4)CC3)CC2)c(Cl)c1 [compound 89]	> 0.1 µM
O=C(NCc1ccc(F)c(F)c1)c1cnc(N2CCN(C3CCN(Cc4ccc(Cl)cc4)CC3)CC2)c(I)c1 [compound 182]	< 0.025 µM
O=C(NCc1ccc(Cl)cc1Cl)c1cnc(N2CCN(C3CCN(Cc4ccc([N+](=O)[O-])cc4)CC3)CC2)c(Cl)c1 [compound 142]	0.025 to 0.1 µM
O=C(NCc1ccc(Cl)cc1Cl)c1cnc(N2CCN(C3CCN(Cc4ccc(Br)cc4F)CC3)CC2)c(Cl)c1 [compound 26]	> 0.1 µM
O=C(NCc1ccc(F)cc1)c1cnc(N2CCN(C3CCN(Cc4ccc(F)cc4)CC3)CC2)c(Cl)c1 [compound 55]	> 0.1 µM
CC1CN(c2ncc(C(=O)NCc3ccc(Cl)c(Cl)c3)cc2Cl)CCN1C1CCN(Cc2ccc([N+](=O)[O-])cc2)CC1 (stereo not shown) [compound 186]	< 0.025 µM
CC[C@H]1CN(c2ncc(CNS(=O)(=O)CC)cc2Cl)CCN1C1CCN(Cc2ccc(Cl)cc2F)CC1 [compound 386]	< 0.025 µM
